# Data taken from article PMC7169394, “Binding Constants of Substituted Benzoic Acids with Bovine Serum Albumin” (Pharmaceuticals, 2020).
# Where two headings read alike, the source gives them in different places.
# Tests used:
# [1] = target: bovine serum albumin (BSA) (Bos taurus, UniProt P02769); assay: biochemical; type: binding
# BSA [2] = conditions: UC, cited from earlier work
# [3] = tested on: human serum albumin (HSA); conditions: SF, 298 K; cited from earlier work
# BSA [4] = tested on: BSA; parameters: method as in PMID 5677620; conditions: SP, 310 K; cited from earlier work
# BSA [5] = conditions: SF, 298 K; cited from earlier work
# [6] = tested on: human serum albumin (HSA); parameters: method as in PMID 3664856; conditions: UC, 288 K; cited from earlier work
# BSA [7] = tested on: BSA; parameters: method as in PMID 27098963; conditions: ED, 310 K; cited from earlier work
# BSA [8] = conditions: CE, 298 K; cited from earlier work
# [9] = 298 K, phosphate buffer pH 7.4, 0.05 M, BSA about 1 µM, 1:1 model, standard state 1 M, value is K multiplied by 10^−4, read-out: K∙10^−4 (binding constant with BSA, final corrected value) (converted)
# [10] = 298 K, phosphate buffer pH 7.4, 0.05 M, BSA about 1 µM, 1:1 model, standard state 1 M, […], read-out: K∙10^−4 (binding constant with BSA, final corrected value) (converted)
# Chain of bovine serum albumin (BSA) (P02769 25-607): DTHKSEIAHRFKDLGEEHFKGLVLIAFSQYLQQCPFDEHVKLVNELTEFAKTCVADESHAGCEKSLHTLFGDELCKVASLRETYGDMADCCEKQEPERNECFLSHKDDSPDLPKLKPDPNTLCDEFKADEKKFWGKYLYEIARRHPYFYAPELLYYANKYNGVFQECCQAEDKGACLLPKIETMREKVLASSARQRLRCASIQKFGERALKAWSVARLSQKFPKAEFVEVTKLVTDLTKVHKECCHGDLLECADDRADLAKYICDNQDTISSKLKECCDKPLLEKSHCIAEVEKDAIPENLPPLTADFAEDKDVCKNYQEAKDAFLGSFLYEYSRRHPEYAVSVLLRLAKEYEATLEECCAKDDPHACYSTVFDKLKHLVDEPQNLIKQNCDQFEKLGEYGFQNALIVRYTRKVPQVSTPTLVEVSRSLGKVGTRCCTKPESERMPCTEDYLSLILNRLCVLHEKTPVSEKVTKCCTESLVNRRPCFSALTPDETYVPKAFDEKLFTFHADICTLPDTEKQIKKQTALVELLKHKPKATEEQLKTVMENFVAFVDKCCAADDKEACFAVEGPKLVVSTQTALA
compound,measurement,setting,value
O=C(O)c1cccc(I)c1 [3-iodobenzoic acid],Kd,[1]; [9],19.6 µM
N#Cc1ccc(C(=O)O)cc1 [4-cyanobenzoic acid],K·10^−4 BSA,BSA [2]; 288 K,"1.66 (UC, 288 K) [8]"
O=C(O)c1ccccc1F [2-fluorobenzoic acid],Kd,[1]; [10],30.3 µM
O=C(O)c1cccc(O)c1 [3-hydroxybenzoic acid],K·10^−4 HSA,[3],0.34 (SF) [10]
same,K·10^−4 BSA,BSA [4],5.01
same,K·10^−4 BSA,BSA [5],0.85
same,Kd,[1],52.6 µM
O=C(O)c1ccc(O)cc1 [4-hydroxybenzoic acid],K·10^−4 HSA,[3],< 0.1
same,K·10^−4 BSA,BSA [4],0.79
same,K·10^−4 BSA,BSA [5],< 0.1
same,Kd,[1],100 ± 10 µM
same,K·10^−4 BSA,BSA [2]; 288 K,0.68
same,K·10^−4 HSA,[6],0.45
Nc1cccc(C(=O)O)c1 [3-aminobenzoic acid],K·10^−4 BSA,BSA [4],"0.32 (SP, 310 K) [9]"
same,Kd,[1],71.4 µM
O=C(O)c1ccccc1I [2-iodobenzoic acid],Kd,[1]; [9],30.3 µM
O=C(O)c1ccccc1Br [2-bromobenzoic acid],Kd,[1],43.5 µM
same,K·10^−4 BSA,BSA [2]; 310 K,"3.98 (UC, 310 K) [9]"
O=C(O)c1ccccc1[N+](=O)[O-] [2-nitrobenzoic acid],Kd,[1],47.6 µM
O=C(O)c1ccc(I)cc1 [4-iodobenzoic acid],Kd,[1]; [9],24.4 µM
O=C(O)c1ccccc1 [benzoic acid],K·10^−4 BSA,BSA [4],5.01
same,K·10^−4 BSA,BSA [7],1.15
same,Kd,[1],52.6 µM
same,K·10^−4 BSA,BSA [2]; 288 K,2.24
same,K·10^−4 HSA,[6],"2.29 (UC, 288 K) [8]"
O=C(O)c1cccc(Br)c1 [3-bromobenzoic acid],Kd,[1]; [9],28.6 µM
same,K·10^−4 BSA,BSA [2]; 310 K,"63.1 (UC, 310 K) [9]"
O=C(O)c1cccc(Cl)c1 [3-chlorobenzoic acid],K·10^−4 BSA,BSA [7],"11.22 (ED, 310 K) [24]"
same,Kd,[1],17.2 µM
"O=C(O)c1ccc(O)cc1O [2,4-dihydroxybenzoic acid]",K·10^−4 HSA,[3],0.16 (SF) [10]
same,K·10^−4 BSA,BSA [5],<0.1 (SF) [11]
same,Kd,[1],32.3 µM
N#Cc1ccccc1C(=O)O [2-cyanobenzoic acid],Kd,[1],38.5 µM
O=C(O)c1ccc(Br)cc1 [4-bromobenzoic acid],K·10^−4 BSA,BSA [7],20.42
same,Kd,[1]; [9],18.5 µM
same,K·10^−4 BSA,BSA [2]; 310 K,20.0
O=C(O)c1ccc([N+](=O)[O-])cc1 [4-nitrobenzoic acid],K·10^−4 BSA,BSA [7],3.09
same,Kd,[1],12.3 µM
same,K·10^−4 BSA,BSA [2]; 288 K,6.03
same,K·10^−4 HSA,[6],"8.13 (UC, 288 K) [8]"
O=C(O)c1cccc([N+](=O)[O-])c1 [3-nitrobenzoic acid],Kd,[1]; [10],12.8 µM
N#Cc1cccc(C(=O)O)c1 [3-cyanobenzoic acid],Kd,[1],25.6 µM
Cc1ccc(C(=O)O)cc1 [4-methylbenzoic acid],K·10^−4 HSA,[3],0.35
same,K·10^−4 BSA,BSA [4],7.94
same,K·10^−4 BSA,BSA [7],3.16
same,K·10^−4 BSA,BSA [5],< 0.1
same,Kd,[1],71.4 µM
same,K·10^−4 BSA,BSA [2]; 288 K,6.76
same,K·10^−4 HSA,[6],3.63
O=C(O)c1ccccc1O [2-hydroxybenzoic acid],K·10^−4 HSA,[3],190
same,K·10^−4 BSA,BSA [8],3.92
same,K·10^−4 BSA,BSA [4],10.0
same,K·10^−4 BSA,BSA [5],7.38
Nc1ccccc1C(=O)O [2-aminobenzoic acid],K·10^−4 BSA,BSA [4],"0.63 (SP, 310 K) [9]"
same,Kd,[1]; [10],43.5 µM
